Results on 11 molecules are retold here after patent US20030032587A1, “Urocortin peptides” (The Salk Institute for Biological Studies, priority 1995, published 2003).

Read-outs that look alike come from different tables or passages of the source. Where no end group is shown, it is not given here.

Experiment [1] relates to human CRF-R2β. In words: competitive displacement binding assay, CRF-R2β stably expressed in CHO cells. The conditions noted are these: read-out: Ki (95% confidence limits); CRF-R2β in stably transfected CHO cells; displacement of [125I-Tyr0]Ucn. The protocol: Binding assays with cells expressing human CRF-R1 are carried out as described in the Chen et al. P.N.A.S., supra. The affinities of test peptides for CRF-R1 and CRF-R2β stably expressed in CHO cells were determined by competitive displacement of ^125I-(Nle^21, Tyr^32) ovine CRF (for CRF-R1) or of [^125II-Tyr^∘]Ucn (for CRF-R2β) as described.
On the technique in general: In a radioligand displacement assay an active substance lowers the binding of a labelled ligand.

Experiment [2] concerns the target T1, murine CRF-R2β (Mus musculus, UniProt Q60748).
T1 construct: expressed in transfected cells
In words: elevation of intracellular cAMP in cells expressing mCRF-R2β. Format: cell-based. The note with it: read-out: ED50, elevation of cAMP. The source says: CRF-R is used to refer to a family of receptor protein subtypes which participate in the G-protein-coupled response of cells to CRF and Ucn-like ligands. CRF-Rs are coupled by heterotrimeric G-proteins to various intracellular enzymes, ion channels, and transporters. The G-proteins associate with the receptor proteins at the intracellular face of the plasma membrane. An agonist binding to a CRF-R catalyzes the exchanges of GTP for GDP on the α-subunit (G-protein “activation”), resulting in its dissociation and stimulation of one (or more) of the various signal-transducing enzymes and channels. G-protein preferentially stimulates particular effectors, and the specificity of signal transduction may be determined, therefore, by the specificity of G-protein/receptor interaction. CRF-R proteins mediate signal transduction through the modulation of adenylate cyclase and perhaps through PI turnover. For example, when CRF or Ucn binds to and activates the CRF-R, adenylate cyclase causes an elevation in the level of intracellular cAMP. […] Such transformed cells are monitored for either an increase or decrease in the level of intracellular CAMP which provides a determination of the effectiveness of the potential agonist or antagonist. Methods for measuring intracellular levels of cAMP, or measuring cyclase activity, are well known in the art.

Experiment [3] concerns primary murine anterior pituitary cells. Format: cell-based. The note with it: for EC50: read-out: EC50, secretion of ACTH. The source says:
A straightforward assay using rat anterior pituitary cells in monolayer culture can be carried out to determine whether a candidate peptide thereof will function as a CRF agonist and stimulate ACTH secretion by activating CRF receptors on such cells. The procedure which is used is that generally set forth in Endocrinology, 91, supra. A very similar assay is used to test for antagonistic properties, using a challenge dose of oCRF or the like.
To test the ability of purified Ucn or another candidate Ucn-like peptide to function as a CRF agonist and to promote ACTH production and/or secretion, cultures of dispersed primary murine anterior pituitary cells (0.15×10^6 cells/well are used), as generally described in Vale et al. Meth. Enzym., 103, 565-577 (1983), and in Endocrinology, 91, 562 (1972). These cultures are maintained in 0.5 ml/well of β-PJ (a reagent available from Kansas City Biochemicals) containing 2% fetal bovine serum. On the morning of culture day 5, the cells are washed 3 times with β-PJ containing 0.1% bovine serum albumin and then incubated for 1 hour at 37° C. in the same medium. The medium is then replaced with Ucn, or an analog thereof, diluted in β-PJ containing 0.1% bovine serum albumin. Incubations are terminated after 3 hours, at which time the medium is removed and stored at −20° C. until ACTH radioimmunoassays are performed using a suitable kit, such as that commercially available from Diagnostic Products Corporation of Los Angeles, Calif. Secreted ACTH is measured using Allfit computer program with results expressed as the average±s.e.m. of 3 replicate bioassays.

Experiment [4] deals with CRF receptors on anterior pituitary cells in culture. In words: cell-based or functional assay.
Experiment [5] relates to rats. In words: ACTH secretion in vivo, ACTH level in plasma. The note with it: for ACTH level in plasma: at 30 minutes.
The target of experiment [6] is human CRF-R2β, stably transfected CHO cells (human) (UniProt Q13324). In words: competitive displacement of [125I-Tyr0]Ucn from stably transfected CHO cells expressing human CRF-R2β; 95% confidence limits in brackets.
In experiment [7] the test system is rats. Kind of experiment: fall in mean arterial blood pressure after peripheral (iv) administration. It is filed as in vivo.
Experiment [8] deals with T2, human CRF binding protein (hCRF-BP) (Homo sapiens, UniProt P24387).
T2 construct: made in house; host or cells: recombinant CHO cells, conditioned medium
T2 sequence (P24387 25-322): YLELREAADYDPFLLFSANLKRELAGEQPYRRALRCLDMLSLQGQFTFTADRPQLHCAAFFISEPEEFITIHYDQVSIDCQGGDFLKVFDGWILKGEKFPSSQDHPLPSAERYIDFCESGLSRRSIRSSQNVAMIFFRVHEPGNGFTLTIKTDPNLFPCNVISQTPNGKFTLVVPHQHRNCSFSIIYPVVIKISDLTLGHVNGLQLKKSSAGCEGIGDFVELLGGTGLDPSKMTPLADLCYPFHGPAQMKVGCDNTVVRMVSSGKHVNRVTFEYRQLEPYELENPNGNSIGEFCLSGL
In words: competitive hCRF-BP ligand binding assay. The conditions noted are these: radioligand 125I[Nle21,Tyr32]-oCRF.

In experiment [9] the target is T3, human CRF binding protein (human, UniProt P24387 25-322).
T3 construct: also called hCRF-BP; CRF-BP
T3 sequence (looked up): T2 sequence (P24387 25-322)
Kind of experiment: competitive hCRF-BP ligand binding assay with [125I-DTyr0]hCRF. On the procedure:
After incubating with the primary and secondary antisera for 30 minutes each, 1 ml of saline wash is added, and the test tubes are centrifuged at 2000× g for 20 minutes at 4° C. Precipitates are counted in a gamma counter. Inhibitory binding affinity constant (Kᵢ) values are determined using parameters calculated by the LIGAND computer program, Munson et al., Anal. Biochem., 107, 220 (1980), and a Vax/VMS computer system.

Experiment [10] deals with CRF receptors on anterior pituitary cells in culture. In words: cell-based or functional assay. This is another data set of the same source.
The target in experiment [11] is T3, human CRF binding protein. Kind of experiment: competitive hCRF-BP ligand binding assay with 125I[Nle21,Tyr32]-oCRF.

T1 sequence (Q60748 1-431 isoform Q60748-2): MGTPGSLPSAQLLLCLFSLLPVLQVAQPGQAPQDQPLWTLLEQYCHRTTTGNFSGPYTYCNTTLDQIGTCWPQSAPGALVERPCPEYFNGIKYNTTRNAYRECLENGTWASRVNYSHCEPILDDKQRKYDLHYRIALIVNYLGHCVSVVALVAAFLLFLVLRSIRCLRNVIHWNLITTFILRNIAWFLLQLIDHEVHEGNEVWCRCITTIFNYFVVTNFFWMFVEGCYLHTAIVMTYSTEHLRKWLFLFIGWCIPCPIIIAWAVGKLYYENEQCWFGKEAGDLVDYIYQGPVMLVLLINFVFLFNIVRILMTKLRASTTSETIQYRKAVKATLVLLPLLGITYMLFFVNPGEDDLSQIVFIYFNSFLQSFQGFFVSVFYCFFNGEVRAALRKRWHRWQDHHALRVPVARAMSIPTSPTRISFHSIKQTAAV

“H-NDDPPISIDLTFHLLRNMIEMARIENEREQAGLNRKYLDEV-NH2 [sfUI, reference compound]”: in experiment [1], the Ki was 3 nM. In addition, the EC50 in experiment [2] was 0.74 nM; in experiment [3] (cultured rodent pituitary cells, no unit printed for this value) it was 0.017 ± 0.003 nM.
As for `CC[C@H](C)[C@H](NC(=O)[C@@H](NC(=O)[C@H](CC(=O)O)NC(=O)[C@H](CC(C)C)NC(=O)[C@H](CC(C)C)NC(=O)[C@H](CC(C)C)NC(=O)[C@H](CCCNC(=N)N)NC(=O)[C@H](CC(N)=O)NC(=O)[C@H](CC(N)=O)NC(=O)[C@H](C)NC(=O)[C@H](C)NC(=O)[C@H](CCC(N)=O)NC(=O)[C@H](CCC(N)=O)NC(=O)[C@H](CCCCN)NC(=O)[C@H](CCC(=O)O)NC(=O)[C@H](CCCCN)NC(=O)[C@H](CCC(=O)O)NC(=O)[C@H](CCC(N)=O)NC(=O)[C@H](CCCCN)NC(=O)[C@H](CCC(=O)O)NC(=O)[C@@H](NC(=O)[C@H](CCC(=O)O)NC(=O)[C@@H](NC(=O)[C@H](CCSC)NC(=O)[C@H](CCCCN)NC(=O)[C@H](CCCNC(=N)N)NC(=O)[C@H](CC(C)C)NC(=O)[C@H](CC(C)C)NC(=O)[C@H](CCC(=O)O)NC(=O)[C@H](CC(C)C)NC(=O)[C@H](CO)NC(=O)[C@H](CC(C)C)NC(=O)[C@H](CC(=O)O)NC(=O)[C@@H](NC(=O)[C@H](CO)NC(=O)[C@@H](NC(=O)[C@@H]1CCCN1C(=O)[C@@H]1CCCN1C(=O)CNC(=O)[C@@H]1CCC(=O)N1)[C@@H](C)CC)[C@@H](C)CC)[C@@H](C)CC)[C@@H](C)CC)[C@@H](C)O)C(N)=O` [sauvagine, reference compound], the Ki in experiment [1] stood at 2 nM. In experiment [3] (cultured rodent pituitary cells, incubation 3 hours, average±s.e.m.), the EC50 was roughly 0.033 nM.
The molecule [Tyr0]rUcn(1-40) (peptide) had an ACTH secretion, anterior pituitary cell cultures, potency relative to r/hCRF in [4] of 2.2 times r/hCRF.
Turning to `CC[C@H](C)[C@H](NC(=O)[C@@H](NC(=O)[C@H](CCC(=O)O)NC(=O)[C@H](CCSC)NC(=O)[C@H](CC(C)C)NC(=O)[C@H](CCCCN)NC(=O)[C@H](CCCNC(=N)N)NC(=O)[C@H](CC(N)=O)NC(=O)[C@H](CO)NC(=O)[C@H](Cc1c[nH]cn1)NC(=O)[C@H](C)NC(=O)[C@H](CCC(N)=O)NC(=O)[C@H](CCC(N)=O)NC(=O)[C@H](C)NC(=O)[C@H](CC(C)C)NC(=O)[C@H](CCC(N)=O)NC(=O)[C@H](CCC(=O)O)NC(=O)[C@H](C)NC(=O)[C@H](CCCNC(=N)N)NC(=O)[C@H](C)NC(=O)[C@H](CCSC)NC(=O)[C@H](CCC(=O)O)NC(=O)[C@H](CC(C)C)NC(=O)[C@@H](NC(=O)[C@H](CCC(=O)O)NC(=O)[C@H](CCCNC(=N)N)NC(=O)[C@H](CC(C)C)NC(=O)[C@H](CC(C)C)NC(=O)[C@H](Cc1c[nH]cn1)NC(=O)[C@H](Cc1ccccc1)NC(=O)[C@@H](NC(=O)[C@H](CC(C)C)NC(=O)[C@H](CC(=O)O)NC(=O)[C@H](CC(C)C)NC(=O)[C@H](CO)NC(=O)[C@@H](NC(=O)[C@@H]1CCCN1C(=O)[C@@H]1CCCN1C(=O)[C@H](CCC(=O)O)NC(=O)[C@H](CCC(=O)O)NC(=O)[C@@H](N)CO)[C@@H](C)CC)[C@@H](C)O)C(C)C)[C@@H](C)CC)C(N)=O` [r/hCRF, reference compound], the “ACTH level in plasma” value in experiment [5] (5 μg/kg dose) worked out at 422 ± 66 pg/mL.
In [6], rat urocortin (rat Ucn) (peptide) gave a Ki of 0.41 nM.
`CC[C@H](C)[C@H](NC(=O)[C@H](CO)NC(=O)[C@H](CC(C)C)NC(=O)[C@@H]1CCCN1C(=O)[C@@H]1CCCN1C(=O)[C@H](CC(=O)O)NC(=O)[C@@H](N)CC(=O)O)C(=O)N[C@@H](CC(=O)O)C(=O)N[C@@H](CC(C)C)C(=O)N[C@H](C(=O)N[C@@H](Cc1ccccc1)C(=O)N[C@@H](Cc1c[nH]cn1)C(=O)N[C@@H](CC(C)C)C(=O)N[C@@H](CC(C)C)C(=O)N[C@@H](CCCNC(=N)N)C(=O)N[C@H](C(=O)N[C@@H](CC(C)C)C(=O)N[C@@H](CC(C)C)C(=O)N[C@@H](CCC(=O)O)C(=O)N[C@@H](CC(C)C)C(=O)N[C@@H](C)C(=O)N[C@@H](CCCNC(=N)N)C(=O)N[C@H](C(=O)N[C@@H](CCC(N)=O)C(=O)N[C@@H](CO)C(=O)N[C@@H](CCC(N)=O)C(=O)N[C@@H](CCCNC(=N)N)C(=O)N[C@@H](CCC(=O)O)C(=O)N[C@@H](CCCNC(=N)N)C(=O)N[C@@H](C)C(=O)N[C@@H](CCC(=O)O)C(=O)N[C@@H](CCC(N)=O)C(=O)N[C@@H](CC(N)=O)C(=O)N[C@@H](CCCNC(=N)N)C(=O)N[C@H](C(=O)N[C@H](C(=O)N[C@@H](Cc1ccccc1)C(=O)N[C@@H](CC(=O)O)C(=O)N[C@@H](CO)C(=O)N[C@H](C(N)=O)C(C)C)[C@@H](C)CC)[C@@H](C)CC)[C@@H](C)O)[C@@H](C)O)[C@@H](C)O` [rUcn]: the Ki in experiment [1] was 0.41 nM. In addition, in [5] (1 μg/kg dose), the “ACTH level in plasma” value turned out to be 659 ± 53 pg/mL. The “ACTH level in plasma, effect compared with r/hCRF” value in experiment [5] (at 1 hour and at 2 hours) is reported as “greater effect continues”. The “fall in mean arterial blood pressure” value in experiment [7] (administered peripherally, e.g. iv, dose as low as 250 ng for a rat of about 250 to 275 grams) is “marked fall”. In addition, in experiment [7] (dose of about 3.77 μg/kg), the “lowers blood pressure, times as much as either sfUI or r/hCRF” value is on record as 2-3 times. In experiment [2], the EC50 worked out at 0.18 ± 0.04 nM. For the same molecule, in experiment [8], the “binding to hCRF-BP compared with sauvagine and sfUI” value is on record as “much more strongly than does sauvagine, but less strongly than sfUI”; the “binds hCRF-BP more strongly than r/hCRF, factor” value is listed as “about 2”. In [3] (cultured rodent pituitary cells), the “biopotency for ACTH secretion compared with oCRF” value is reported as “more potent than oCRF”. Moreover, the “stimulates the secretion of ACTH and β-END-LI (β-endorphin)” value in experiment [3] (result in words) is listed as “strongly stimulates”.

B1: Ucn(5-32) (peptide)
peptide: LSIDLTFHLLRTLLELARTQSQRERAEQ
notes: Printed without NH2 at the C-terminus
As to B1, in experiment [9], the binding result is “binds”.

B2: [Ile18]-Ucn(6-29) (peptide)
peptide: SIDLTFHLLRTLIELARTQSQRER
notes: as for B1
Consider B2, for which the binding result in experiment [9] is “binds”.

B3: rat/human CRF (peptide)
peptide: SEEPPISLDLTFHLLREVLEMARAEQLAQQAHSNRKLMEII-NH2
notes: also called r/hCRF; rCRF
As for B3, the EC50, secretion of ACTH in cultured rodent pituitary cells in experiment [10] was determined as 0.043 nM. In experiment [11], the binding result is recorded as “binds”.

B4: Ucn(8-32) (peptide)
peptide: DLTFHLLRTLLELARTQSQRERAEQ
notes: as for B1
With B4, the binding result in experiment [9] was “binds”.

B5: Ucn(3-27) (peptide)
peptide: PPLSIDLTFHLLRTLLELARTQSQR
notes: Printed without NH2
On to B5, for which the binding result in experiment [9] is on record as “binds”.

The term Ki denotes a measure of affinity in units of concentration, obtained from inhibition or displacement.
